The conditions of series [1]: 101.33 kPa, Liquid, Alternating current cell with electrodes.
Series [2] is described as follows: wn = mass fraction of the nth substance listed. The following applies: 100 kPa, Liquid, Alternating current cell with electrodes.

Each structure is given as a SMILES string. ± gives the expanded uncertainty stated by the source.

For `CCCCCC[n+]1ccn(C)c1.O=S(=O)([N-]S(=O)(=O)C(F)(F)F)C(F)(F)F`, the electrical conductivity in series [1] (288.15 K) turned out to be 0.135 ± 0.02 S/m; in series [1] (293.15 K) it was 0.173 ± 0.02 S/m; in series [1] (298.15 K) it was 0.218 ± 0.02 S/m; in series [1] (308.15 K), 0.327 ± 0.02 S/m; in series [1] (323.15 K) it was 0.546 ± 0.02 S/m.
Taken in the same sequence, the figures for `CCCC[n+]1ccn(C)c1.O=S(=O)([N-]S(=O)(=O)C(F)(F)F)C(F)(F)F` were 0.265 ± 0.02 S/m, 0.331 ± 0.02 S/m, 0.406 ± 0.02 S/m, 0.585 ± 0.02 S/m and 0.924 ± 0.02 S/m.
Take `CCn1cc[n+](C)c1.O=S(=O)([N-]S(=O)(=O)C(F)(F)F)C(F)(F)F`: the electrical conductivity in series [1] (288.15 K) was determined as 0.644 ± 0.02 S/m; in series [1] (293.15 K), 0.773 ± 0.02 S/m; in series [1] (298.15 K), 0.912 ± 0.02 S/m; in series [1] (308.15 K), 1.23 ± 0.02 S/m; in series [1] (323.15 K), 1.79 ± 0.02 S/m.
Regarding `CCCC[n+]1ccn(C)c1.O=S(=O)([N-]S(=O)(=O)C(F)(F)F)C(F)(F)F` + O, the electrical conductivity in series [2] (288.15 K, w2 = 1e-05) amounted to 0.265 ± 0.02 S/m; in series [2] (288.15 K, w2 = 8e-05), 0.266 ± 0.02 S/m; in series [2] (288.15 K, w2 = 0.00102) it was 0.277 ± 0.02 S/m; in series [2] (288.15 K, w2 = 0.00885), 0.365 ± 0.021 S/m; in series [2] (293.15 K, w2 = 1e-05), 0.331 ± 0.02 S/m; in series [2] (293.15 K, w2 = 8e-05) it was 0.332 ± 0.02 S/m. Besides, the electrical conductivity is 0.345 ± 0.02 S/m in series [2] (293.15 K, w2 = 0.00102); 0.449 ± 0.021 S/m in series [2] (293.15 K, w2 = 0.00885); 0.406 ± 0.02 S/m in series [2] (298.15 K, w2 = 1e-05); 0.408 ± 0.02 S/m in series [2] (298.15 K, w2 = 8e-05); 0.422 ± 0.02 S/m in series [2] (298.15 K, w2 = 0.00102); 0.542 ± 0.022 S/m in series [2] (298.15 K, w2 = 0.00885).
For the compound `CCCCn1cc[n+](C)c1.F[P-](F)(F)(F)(F)F` [1-butyl-3-methylimidazolium hexafluorophosphate], the electrical conductivity in series [1] (288.15 K) was determined as 0.079 ± 0.02 S/m; in series [1] (293.15 K), 0.109 ± 0.02 S/m; in series [1] (298.15 K) it was 0.146 ± 0.02 S/m; in series [1] (308.15 K), 0.247 ± 0.02 S/m; in series [1] (323.15 K) it was 0.477 ± 0.02 S/m.
